Among the data in ChEMBL document CHEMBL1143950, “Antifungal and cytotoxic activities of some N-substituted aniline derivatives bearing a hetaryl fragment” (Bioorg Med Chem, 2008) are MIC values, retold here.

Values after ≈ are worked out from the molar mass of the structure shown. Where only a bound is given, the exact number is not on record here.

Common to all, as to assay type: functional
For one test, the system named is Trichophyton rubrum. In words: Antifungal activity against Trichophyton rubrum C113 by microbroth dilution method. On the technique in general: Dilution methods test growth across graded concentrations, often in twofold steps.
The test system of the next test is Saccharomyces cerevisiae. In words: Antifungal activity against Saccharomyces cerevisiae ATCC 9763 by microbroth dilution method.
The subject of a further test is Candida albicans. In words: Antifungal activity against Candida albicans ATCC 10231 by micro-broth dilution method.
Another test relates to Aspergillus fumigatus. The experiment in a line: Antifungal activity against Aspergillus fumigatus ATCC 26934 by micro-broth dilution method.
The next test has as its system Aspergillus niger. The experiment in a line: Antifungal activity against Aspergillus niger ATCC 9029 by micro-broth dilution method.
In a further test the test system is Cryptococcus neoformans. In words: Antifungal activity against Cryptococcus neoformans ATCC 32264 by microbroth dilution method.
For another test, the system named is Aspergillus flavus. The experiment in a line: Antifungal activity against Aspergillus flavus ATCC 9170 by micro-broth dilution method.
A further test has as its system Candida tropicalis. The experiment in a line: Antifungal activity against Candida tropicalis C131 by micro-broth dilution method.
For test [1], the system named is Trichophyton mentagrophytes. The experiment in a line: Antifungal activity against Trichophyton mentagrophytes ATCC 9972 by micro-broth dilution method.
In the next test the test system is Nannizzia gypsea. In words: Antifungal activity against Microsporum gypseum C115 by microbroth dilution method.

On to `Cn1cccc1C(C#N)Nc1ccccc1` (stereo not given), for which the minimal inhibitory concentration (MIC) (as a rule, the least concentration at which growth counts as inhibited) was 250 µg/mL (≈ 1180 µM) with Trichophyton rubrum; > 250 µg/mL in the test on Saccharomyces cerevisiae; > 250 µg/mL in the test on Candida albicans; > 250 µg/mL in the test with Aspergillus fumigatus; > 250 µg/mL in the test with Aspergillus niger; > 250 µg/mL against Cryptococcus neoformans. Also, the MIC with Aspergillus flavus is > 250 µg/mL; in the test with Candida tropicalis, > 250 µg/mL; in test [1], 250 µg/mL (≈ 1180 µM); with Nannizzia gypsea, 250 µg/mL (≈ 1180 µM).
On to `c1ccc(NCc2cccs2)cc1`, for which the MIC is 12.5 µg/mL (≈ 66 µM) with Trichophyton rubrum; > 250 µg/mL in the test with Saccharomyces cerevisiae; > 250 µg/mL with Candida albicans; > 250 µg/mL in the test on Aspergillus fumigatus; > 250 µg/mL against Aspergillus niger; > 250 µg/mL with Cryptococcus neoformans. Besides, the minimum inhibitory concentration (MIC) against Aspergillus flavus was > 250 µg/mL; with Candida tropicalis it was > 250 µg/mL; in [1] it was 25 µg/mL (≈ 132 µM); with Nannizzia gypsea, 25 µg/mL (≈ 132 µM).
`Cc1ccc(NCc2ccco2)cc1`: the MIC is 25 µg/mL (≈ 134 µM) against Trichophyton rubrum; > 250 µg/mL against Saccharomyces cerevisiae; > 250 µg/mL in the test with Candida albicans; 125 µg/mL (≈ 668 µM) against Aspergillus fumigatus; 250 µg/mL (≈ 1340 µM) against Aspergillus niger; 100 µg/mL (≈ 534 µM) against Cryptococcus neoformans. Also, the MIC against Aspergillus flavus was 250 µg/mL (≈ 1340 µM); with Candida tropicalis it was 250 µg/mL (≈ 1340 µM); in test [1] it was 50 µg/mL (≈ 267 µM); against Nannizzia gypsea it was 100 µg/mL (≈ 534 µM).
On to `c1ccc(NCc2ccoc2)cc1`, for which the minimal inhibitory concentration (MIC) is 125 µg/mL (≈ 722 µM) against Trichophyton rubrum; 250 µg/mL (≈ 1440 µM) against Saccharomyces cerevisiae; 250 µg/mL (≈ 1440 µM) in the test on Candida albicans; 250 µg/mL (≈ 1440 µM) in the test on Aspergillus fumigatus; 250 µg/mL (≈ 1440 µM) against Aspergillus niger; 125 µg/mL (≈ 722 µM) against Cryptococcus neoformans. Further, the minimal inhibitory concentration (MIC) was 250 µg/mL (≈ 1440 µM) in the test with Aspergillus flavus, 250 µg/mL (≈ 1440 µM) against Candida tropicalis, 125 µg/mL (≈ 722 µM) in test [1] and 250 µg/mL (≈ 1440 µM) in the test with Nannizzia gypsea.
For `Cc1ccc(NC(C#N)c2ccsc2)cc1` (stereo not given), the MIC is 125 µg/mL (≈ 547 µM) with Trichophyton rubrum; > 250 µg/mL in the test on Saccharomyces cerevisiae; > 250 µg/mL with Candida albicans; > 250 µg/mL in the test on Aspergillus fumigatus; > 250 µg/mL in the test with Aspergillus niger; 125 µg/mL (≈ 547 µM) in the test with Cryptococcus neoformans. Further, the minimal inhibitory concentration (MIC) was > 250 µg/mL against Aspergillus flavus, > 250 µg/mL in the test with Candida tropicalis, 125 µg/mL (≈ 547 µM) in test [1] and 250 µg/mL (≈ 1090 µM) against Nannizzia gypsea.
Consider `N#CC(Nc1ccc(Cl)cc1)c1ccsc1` (stereo not given), for which the MIC with Trichophyton rubrum is 125 µg/mL (≈ 503 µM); in the test on Saccharomyces cerevisiae, > 250 µg/mL; with Candida albicans, > 250 µg/mL; in the test with Aspergillus fumigatus, > 250 µg/mL; with Aspergillus niger, > 250 µg/mL; against Cryptococcus neoformans, > 250 µg/mL. Also, the minimum inhibitory concentration (MIC) is > 250 µg/mL in the test with Aspergillus flavus, > 250 µg/mL in the test on Candida tropicalis, 125 µg/mL (≈ 503 µM) in test [1] and 250 µg/mL (≈ 1010 µM) with Nannizzia gypsea.
In the case of `Cc1ccc(NCc2cccs2)cc1`, the minimal inhibitory concentration (MIC) against Trichophyton rubrum is 25 µg/mL (≈ 123 µM); in the test on Saccharomyces cerevisiae it was > 250 µg/mL; against Candida albicans it was > 250 µg/mL; against Aspergillus fumigatus, > 250 µg/mL; in the test with Aspergillus niger, > 250 µg/mL; in the test on Cryptococcus neoformans, > 250 µg/mL. Also, the minimum inhibitory concentration (MIC) with Aspergillus flavus is > 250 µg/mL; against Candida tropicalis, > 250 µg/mL; in [1], 50 µg/mL (≈ 246 µM); in the test on Nannizzia gypsea, 12.5 µg/mL (≈ 61.5 µM).
For `N#CC(Nc1ccccc1)c1ccncc1` (stereo not given), the MIC was 125 µg/mL (≈ 597 µM) against Trichophyton rubrum; > 250 µg/mL against Saccharomyces cerevisiae; > 250 µg/mL against Candida albicans; 250 µg/mL (≈ 1190 µM) with Aspergillus fumigatus; 250 µg/mL (≈ 1190 µM) in the test on Aspergillus niger; 250 µg/mL (≈ 1190 µM) in the test on Cryptococcus neoformans. Besides, the minimal inhibitory concentration (MIC) against Aspergillus flavus is 250 µg/mL (≈ 1190 µM); against Candida tropicalis, > 250 µg/mL; in [1], 125 µg/mL (≈ 597 µM); with Nannizzia gypsea it was 250 µg/mL (≈ 1190 µM).
Turning to `Cc1ccc(NCc2ccoc2)cc1`, the MIC against Trichophyton rubrum stood at 250 µg/mL (≈ 1340 µM); against Saccharomyces cerevisiae, 250 µg/mL (≈ 1340 µM); against Candida albicans, 250 µg/mL (≈ 1340 µM); against Aspergillus fumigatus it was 250 µg/mL (≈ 1340 µM); against Aspergillus niger, 250 µg/mL (≈ 1340 µM); in the test on Cryptococcus neoformans, 125 µg/mL (≈ 668 µM). Besides, the MIC stood at 250 µg/mL (≈ 1340 µM) in the test on Aspergillus flavus, 250 µg/mL (≈ 1340 µM) in the test with Candida tropicalis, 250 µg/mL (≈ 1340 µM) in test [1] and 125 µg/mL (≈ 668 µM) against Nannizzia gypsea.
Turning to `COc1ccc(NCc2ccco2)cc1`, the MIC is 100 µg/mL (≈ 492 µM) in the test with Trichophyton rubrum; > 250 µg/mL in the test with Saccharomyces cerevisiae; > 250 µg/mL against Candida albicans; 250 µg/mL (≈ 1230 µM) against Aspergillus fumigatus; 250 µg/mL (≈ 1230 µM) in the test with Aspergillus niger; > 250 µg/mL in the test on Cryptococcus neoformans. The minimum inhibitory concentration (MIC) against Aspergillus flavus was 250 µg/mL (≈ 1230 µM); in the test with Candida tropicalis it was > 250 µg/mL; in test [1], 50 µg/mL (≈ 246 µM); against Nannizzia gypsea it was 100 µg/mL (≈ 492 µM).
